biological target: T1, human PTH1 receptor (Homo sapiens, UniProt Q03431); assay: In vitro cAMP signal activity in HKRK-B7 cells (LLC-PK1 cells overexpressing the human PTH1 receptor); assay type: cell-based; conditions: HKRK-B7 cells; compound at 1×10^−3 M; cAMP produced as percentage of that produced by hPTH(1-34) at 100 nM
T1 sequence (Q03431 27-593): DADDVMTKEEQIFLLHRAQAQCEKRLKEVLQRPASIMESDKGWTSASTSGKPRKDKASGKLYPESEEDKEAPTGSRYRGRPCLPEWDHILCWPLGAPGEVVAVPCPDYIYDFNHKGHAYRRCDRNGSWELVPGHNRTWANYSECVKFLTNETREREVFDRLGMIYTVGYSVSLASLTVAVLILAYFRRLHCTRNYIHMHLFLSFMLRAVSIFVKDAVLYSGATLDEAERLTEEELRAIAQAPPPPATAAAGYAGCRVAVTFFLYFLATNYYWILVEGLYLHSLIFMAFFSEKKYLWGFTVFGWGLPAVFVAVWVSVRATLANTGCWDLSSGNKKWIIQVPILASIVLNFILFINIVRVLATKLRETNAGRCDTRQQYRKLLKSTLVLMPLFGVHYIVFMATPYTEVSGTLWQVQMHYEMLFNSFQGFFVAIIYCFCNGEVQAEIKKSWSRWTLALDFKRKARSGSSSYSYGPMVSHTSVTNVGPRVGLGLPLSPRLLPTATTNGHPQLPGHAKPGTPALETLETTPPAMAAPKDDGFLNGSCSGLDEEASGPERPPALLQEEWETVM

| Compound | cAMP production activity (%) |
| --- | --- |
| [2H]C([2H])([2H])C([2H])([2H])Oc1cc(C2=NC3(CCN(S(=O)(=O)/C=C/c4c(C)cc(C(=O)N5CCC(C)(O)CC5)cc4C)CC3)C(=O)N2)ccc1F [Compound 1224, 2-(3-[1,1,2,2,2-^2H5]ethoxy-4-fluoro-phenyl)-8-{(E)-2-[4-(4-hydroxy-4-methyl-piperidine-1-carbonyl)-2,6-dimethyl-phenyl]-ethenesulfonyl}-1,3,8-triaza-spiro[4.5]dec-1-en-4-one] | 88 |
| CC1CCC(C2=NC3(CN(S(=O)(=O)CCc4cccc5ccccc45)C3)C(=O)N2)CC1 (stereo not drawn) [Compound 1104, 6-(4-Methyl-cyclohexyl)-2-(2-naphthalen-1-yl-ethanesulfonyl)-2,5,7-triaza-spiro[3.4]oct-5-en-8-one] | 16 |
| CCCS(=O)(=O)N1CCCC(C2=NC3(CCN(S(=O)(=O)c4cccc(Cl)c4)CC3)C(=O)N2)C1 (stereo not drawn) [Compound 40, 8-(3-chloro-benzenesulfonyl)-2-[1-(propane-1-sulfonyl)-piperidin-3-yl]-1,3,8-triaza-spiro[4.5]dec-1-en-4-one] | 19 |
| CC(=O)Nc1ccc(CCS(=O)(=O)N2CCC3(CC2)N=C(C2CCC(CC(F)(F)C(F)(F)F)CC2)NC3=O)c(C)c1 (stereo not drawn) [Compound 1080, N-[3-Methyl-4-(2-{4-oxo-2-[4-(2,2,3,3,3-pentafluoro-propyl)-cyclohexyl]-1,3,8-triaza-spiro[4.5]dec-1-ene-8-sulfonyl}-ethyl)-phenyl]-acetamide] | 81 |
| Cc1cc(N(C)C(N)=O)cc(C)c1/C=C/S(=O)(=O)N1CCC2(CC1)N=C(CCCCCCCCCCCCCC(N)=O)NC2=O [Compound 1175, 14-(8-{(E)-2-[2,6-dimethyl-4-(1-methyl-ureido)-phenyl]-ethenesulfonyl}-4-oxo-1,3,8-triaza-spiro[4.5]dec-1-en-2-yl)-tetradecanoic acid amide] | 81 |
| CNc1cc(C)c(/C=C/[S@TB3](=O)(=O)N2CCC3(CC2)N=C(CCCCCCCCCO)NC3=O)c(C)c1 [Compound 1107, 8-[(E)-2-(2,6-dimethyl-4-methylamino-phenyl)-ethenesulfonyl]-2-(9-hydroxy-nonyl)-1,3,8-triaza-spiro[4.5]dec-1-en-4-one] | 24 |
| COCc1cc(NC(C)=O)ccc1CCS(=O)(=O)N1CCC2(CC1)N=C(C1CCC(C)CC1)NC2=O (stereo not drawn) [Compound 754, N-(3-methoxymethyl-4-{2-[2-(4-methyl-cyclohexyl)-4-oxo-1,3,8-triaza-spiro[4.5]dec-1-ene-8-sulfonyl]-ethyl}-phenyl)-acetamide] | 89 |
| CC(C)COC(=O)N1CCCC(C2=NC3(CCN(S(=O)(=O)c4cccc(Cl)c4)CC3)C(=O)N2)C1 (stereo not drawn) [Compound 462, 3-[8-(3-chloro-benzenesulfonyl)-4-oxo-1,3,8-triaza-spiro[4.5]dec-1-en-2-yl]-piperidine-1-carboxylic acid isobutyl ester] | 47 |
| CCCCC1CCC(C2=NC3(CCN(S(=O)(=O)CCc4ccc(N5C(=O)CNC5=O)cc4C)CC3)C(=O)N2)CC1 (stereo not drawn) [Compound 880, 3-(4-{2-[2-(4-Butyl-cyclohexyl)-4-oxo-1,3,8-triaza-spiro[4.5]dec-1-ene-8-sulfonyl]-ethyl}-3-methyl-phenyl)-imidazolidine-2,4-dione] | 68 |
| CSCCCCCCCC1=NC2(CCN(S(=O)(=O)/C=C/c3c(C)cc(N(C)C(N)=O)cc3C)CC2)C(=O)N1 [Compound 1022, 1-(3,5-Dimethyl-4-{(E)-2-[2-(7-methylsulfanyl-heptyl)-4-oxo-1,3,8-triaza-spiro[4.5]dec-1-ene-8-sulfonyl]-vinyl}-phenyl)-1-methyl-urea] | 105 |
| CC(C)COC(=O)NCc1ccc(CCS(=O)(=O)N2CCC3(CC2)N=C(C2CCCCC2)NC3=O)cc1 [Compound 658, {4-[2-(2-Cyclohexyl-4-oxo-1,3,8-triaza-spiro[4.5]dec-1-ene-8-sulfonyl)-ethyl]-benzyl}-carbamic acid isobutyl ester] | 84 |
| CCCCCCCCCC1=NC2(CCN(S(=O)(=O)/C=C/c3c(C)cc(C(=O)O)cc3C)CC2)C(=O)N1 [Compound 628, 3,5-dimethyl-4-[(E)-2-(2-nonyl-4-oxo-1,3,8-triaza-spiro[4.5]dec-1-ene-8-sulfonyl)-vinyl]-benzoic acid] | 48 |

Next, values leading:

| cAMP production activity (%) | Compound |
| --- | --- |
| 75 | Cc1cc(OC[C@H](O)CO)cc(C)c1/C=C/S(=O)(=O)N1CCC2(CC1)N=C(c1ccc(F)c(C(F)(F)F)c1)NC2=O [Compound 242, 8-{(E)-2-[4-((R)-2,3-Dihydroxy-propoxy)-2,6-dimethyl-phenyl]-ethenesulfonyl}-2-(4-fluoro-3-trifluoromethyl-phenyl)-1,3,8-triaza-spiro[4.5]dec-1-en-4-one] |
| 60 | COC(=O)N(C)c1ccc(/C=C/S(=O)(=O)N2CCC3(CC2)N=C(c2cccc(OC(F)(F)F)c2)NC3=O)c(C)c1 [Compound 467, methyl-(3-methyl-4-{(E)-2-[4-oxo-2-(3-trifluoromethoxy-phenyl)-1,3,8-triaza-spiro[4.5]dec-1-ene-8-sulfonyl]-vinyl}-phenyl)-carbamic acid methyl ester] |
| 75 | CC(=O)N(C)c1cc(C)c(/C=C/S(=O)(=O)N2CCC3(CC2)N=C(C2CCC(CCC(F)(F)F)CC2)NC3=O)c(C)c1 (stereo not drawn) [Compound 546, N-[3,5-dimethyl-4-((E)-2-{4-oxo-2-[4-(3,3,3-trifluoro-propyl)-cyclohexyl]-1,3,8-triaza-spiro[4.5]dec-1-ene-8-sulfonyl}-vinyl)-phenyl]-N-methyl-acetamide] |
| 54 | Cc1c(CCS(=O)(=O)N2CCC3(CC2)N=C(c2cccc(OC(F)(F)F)c2)NC3=O)cccc1C(=O)N1CCOCC1 [Compound 411, 8-{2-[2-methyl-3-(morpholine-4-carbonyl)-phenyl]-ethanesulfonyl}-2-(3-trifluoromethoxy-phenyl)-1,3,8-triaza-spiro[4.5]dec-1-en-4-one] |
| 83 | Cc1cc(N(C)C(N)=O)cc(C)c1/C=C/S(=O)(=O)N1CCC2(CC1)N=C(c1cccc(OC(F)(F)F)c1)NC2=O [Compound 1015, 1-(3,5-dimethyl-4-{(E)-2-[4-oxo-2-(3-trifluoromethoxy-phenyl)-1,3,8-triaza-spiro[4.5]dec-1-ene-8-sulfonyl]-vinyl}-phenyl)-1-methyl-urea] |
| 64 | Cc1cc(N(CCO)C(=O)C(C)C)ccc1/C=C/S(=O)(=O)N1CCC2(CC1)N=C(c1cccc(OC(F)(F)F)c1)NC2=O [Compound 711, N-(2-Hydroxy-ethyl)-N-(3-methyl-4-{(E)-2-[4-oxo-2-(3-trifluoromethoxy-phenyl)-1,3,8-triaza-spiro[4.5]dec-1-ene-8-sulfonyl]-vinyl}-phenyl)-isobutylamide] |
| 70 | Cc1cc(C(=O)N(C)C)ccc1CCS(=O)(=O)N1CCC2(CC1)N=C(c1ccc(C(F)(F)F)c(F)c1)NC2=O [Compound 96, 4-{2-[2-(3-fluoro-4-trifluoromethyl-phenyl)-4-oxo-1,3,8-triaza-spiro[4.5]dec-1-ene-8-sulfonyl]-ethyl}-3,N,N-trimethyl-benzamide] |
| 112 | CCCc1cccc(-c2cccc(C3=NC4(CCN(S(=O)(=O)CCc5c(C)cc(N(C)C(N)=O)cc5C)CC4)C(=O)N3)c2)c1 [Compound 1136, 1-(3,5-Dimethyl-4-{2-[4-oxo-2-(3′-propyl-biphenyl-3-yl)-1,3,8-triaza-spiro[4.5]dec-1-ene-8-sulfonyl]-ethyl}-phenyl)-1-methyl-urea] |
| 80 | Cc1cc(C(=O)N2CCC(C)(O)CC2)cc(C)c1/C=C/S(=O)(=O)N1CCC2(CC1)N=C(c1ccc(OC(F)(F)C(F)F)cc1)NC2=O [Compound 1213, 8-{(E)-2-[4-(4-hydroxy-4-methyl-piperidine-1-carbonyl)-2,6-dimethyl-phenyl]-ethenesulfonyl}-2-[4-(1,1,2,2-tetrafluoro-ethoxy)-phenyl]-1,3,8-triaza-spiro[4.5]dec-1-en-4-one] |
| 109 | Cc1cc(N(C)C(N)=O)cc(C)c1/C=C/S(=O)(=O)N1CCC2(CC1)N=C(c1cccc(OC(F)(F)C(F)F)c1)NC2=O [Compound 1018, 1-[3,5-dimethyl-4-((E)-2-{4-oxo-2-[3-(1,1,2,2-tetrafluoro-ethoxy)-phenyl]-1,3,8-triaza-spiro[4.5]dec-1-ene-8-sulfonyl}-vinyl)-phenyl]-1-methyl-urea] |
| 93 | Cc1cc(OC[C@H](O)CO)cc(C)c1CCS(=O)(=O)N1CCC2(CC1)N=C(c1cccc(OCCCC(F)(F)C(F)(F)F)c1)NC2=O [Compound 1328, 8-{2-[4-((R)-2,3-Dihydroxy-propoxy)-2,6-dimethyl-phenyl]-ethanesulfonyl}-2-[3-(4,4,5,5,5-pentafluoro-pentyloxy)-phenyl]-1,3,8-triaza-spiro[4.5]dec-1-en-4-one] |
| 41 | Cc1cc(S(=O)(=O)NCC(F)(F)F)ccc1/C=C/S(=O)(=O)N1CCC2(CC1)N=C(c1cccc(C(F)(F)F)c1)NC2=O [Compound 217, 3-methyl-4-{(E)-2-[4-oxo-2-(3-trifluoromethyl-phenyl)-1,3,8-triaza-spiro[4.5]dec-1-ene-8-sulfonyl]-vinyl}-N-(2,2,2-trifluoro-ethyl)-benzenesulfonamide] |

Reference: patent US9169254B2, “Spiroimidazolone derivative” (Chugai Seiyaku Kabushiki Kaisha, priority 2009, dated 2015)
